# According to PMC4741798, “Imaging of carbonic anhydrase IX with an ^111In-labeled dual-motif inhibitor” (Oncotarget, 2015):
# Entries after “also recorded” stand apart in the source; their conditions may differ.
# How the values were obtained:
# CAXII = target: T1, CAXII (Homo sapiens, UniProt O43570); assay: Fluorescence polarization for affinity comparison (saturation binding); details: Fig. 4C
# T1 construct: purchased R&D Systems
# Protocol: (§1) Figure 4 Compound 8 had higher binding affinity to CAIX compared to CAII and CAXII Saturation binding curves for CAII, CAIX, and CAXII were generated. 5 nM of compound 8 was titrated by increasing concentrations of CAII, CAIX, and CAXII and the resultant fluorescence polarization (mP) was measured, with EC50 values calculated. […] The target in front of each value (CAII, CAIX, CAXII) is taken from the x-axis title of that panel.
# (§2) Human recombinant CAII, CAIX, and CAXII were purchased from R&D systems (Minneapolis, MN). 5 nM of FITC-labeled 8 were mixed with serially diluted (from 1 μM to 19 fM) isoforms of the carbonic anhydrases in PBS within 384 well Small Volume™ LoBase Microplates (Greiner Bio-One, Frickenhausen Germany). The mixtures were incubated at room temperature for 1 h. Fluorescence polarization was measured using a Safire2™ plate reader (Tecan, Morrisville, NC), with 475 nm excitation and 530 nm emission wavelengths.
# CAII = target: T2, CAII (Homo sapiens, UniProt P00918); assay: as above; details: Fig. 4A
# T2 construct: purchased R&D Systems
# Protocol: as §1, §2
# CAIX = target: CAIX; design: method as in PMID 25698334; details: reported value; cited from earlier work
# [1] = tested on: CAIX-expressing SK-RC-52 cells; assay: FACS analysis of cell binding; type: cell-based
# Protocol: (§3) CAIX-positive SK-RC-52 and CAIX-negative BxPC3 cells were maintained in RPMI 1640 media supplemented with 10% FBS and 1 × penicillin-streptomycin in a 37°C humidified incubator. Cells were detached from the flask with trypsin and reconstituted in RPMI 1640 media supplemented with 1% FBS at a density of 1 × 10^6 cells per mL. FITC-labeled 8 was added to the cells at the indicated concentration and incubated at room temperature for 30 min. Cells were washed twice with the same media for staining and analyzed using the FACSCalibur (BD Bioscience, San Jose, CA) instrument.
# [2] = tested on: CAIX-negative BxPC3 cells; assay: FACS analysis of cell binding; type: cell-based; details: 30 min room temperature
# Protocol: as §3
# [3] = tested on: CAIX-expressing SK-RC-52 cells; assay: Fluorescence microscopic analyses of labeled cells; type: cell-based; details: 100 nM of 8 for 1 h; BxPC3 as negative cells
# Protocol: CAIX-positive SK-RC-52 and CAIX-negative BxPC3 cells were seeded on to 8-well chamber glass slides (Lab-Tek®IICC^2™, Nunc, Rochester NY) and incubated in RPMI 1640 media supplemented with 10% FBS and 1 × penicillin-streptomycin in a 37°C humidified incubator for 48 h. Cells were stained with 100 nM of FITC-labeled 8 for 1 h in the same growth media followed by washing twice with the same media. Cells were fixed with 10% formaldehyde (Sigma-Aldrich, Saint Louis, MO) and washed three times with PBS. Cells were treated with 20 nM DAPI (4′,6-diamidino-2-phenylindole) in PBS. The chambers were removed and the Vectashield mounting solution (Vector Laboratories, Inc., Burlingame, CA) was added to the sample. Fluorescence microscopic images were taken using the Nikon Eclipse 80i epifluorescence microscope (Nikon Instruments Inc., Melville, NY) and the images were processed by the Element software (Nikon Instruments Inc.).
# T1 sequence (O43570 25-354): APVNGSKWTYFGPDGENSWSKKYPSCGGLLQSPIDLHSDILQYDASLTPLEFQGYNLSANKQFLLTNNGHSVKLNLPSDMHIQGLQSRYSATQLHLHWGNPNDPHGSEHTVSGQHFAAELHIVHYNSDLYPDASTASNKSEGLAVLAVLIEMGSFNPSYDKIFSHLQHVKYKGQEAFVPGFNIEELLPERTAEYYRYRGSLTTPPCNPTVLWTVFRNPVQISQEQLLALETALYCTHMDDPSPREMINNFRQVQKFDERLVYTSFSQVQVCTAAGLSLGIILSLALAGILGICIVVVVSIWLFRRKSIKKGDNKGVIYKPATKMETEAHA
smiles,measurement,setting,value
CC(CCC(=O)N[C@@H](CC(=O)N[C@@H](CC(=O)N[C@@H](CCCCn1cc(CCCC(=O)Nc2nnc(S(N)(=O)=O)s2)nn1)C(=O)NCCOCCOCCNC(=S)Nc1ccc(-c2c3ccc(=O)cc-3oc3cc(O)ccc23)c(C(=O)O)c1)C(=O)O)C(=O)O)(c1ccc(O)cc1)c1ccc(O)cc1 [Compound 8],affinity to CAXII relative to CAIX (in words),CAXII,about three-fold lower affinity
same,binding affinity to cytosolic CAII (in words),CAII,poor binding affinity
same,Kd,CAIX,0.2 nM
same,lowest concentration with significant binding to cells (FACS),[1],10 nM
same,binding to cells by FACS (in words),[1]; 30 min room temperature,bound specifically
same,binding to cells by FACS (in words),[2],not to CAIX-negative BxPC3 cells
same,cell surface staining by fluorescence microscopy (in words),[3],Only SK-RC-52 cells were stained with 8 on the surface of the cells; also recorded: bound to the cell surface of SK-RC-52
